Data from ChEMBL document CHEMBL1129260, “Evaluation of the stability and animal biodistribution of gadolinium (III) benzylamine-derivatized diethylenetriaminepentaacetic acid” (J Med Chem, 1996).

assay: Gadolinium(III) stability constants (log K value) for the compound polyamino carboxylate derivative

First: CCCOC(=O)CN(CCN(CCN(CC(=O)O)CC(=O)O)CC(=O)O)CC(=O)O
Second: CCCNC(=O)CN(CCN(CCN(CC(=O)O)CC(=O)O)CC(=O)O)CC(=O)O
The “log K Gd(III) stability constant” value of the first is lower: 18.9 for the first, 19.7 for the second.

Going from `CCN(CCN(CC(=O)O)CC(=O)O)CCN(CC(=O)O)CC(=O)O` to `O=C(O)CN(CCN(CC(=O)O)CC(=O)O)CCN(CC(=O)O)CC(=O)O` [PENTETIC ACID], the “log K Gd(III) stability constant” value rises from 17.8 to 22.4.

With `O=C(O)CN(CCN(CC(=O)O)CC(=O)O)CCN(CC(=O)O)C(COCc1ccccc1)C(=O)O` (stereo not given) the “log K Gd(III) stability constant” value was 22.6.
